Consider 21 molecules from patent publication US8658794B2, “8-methyl-1-phenyl-imidazol[1,5-a]pyrazine compounds as Lck inhibitors and uses thereof” (Merck Sharp & Dohme B.V., priority 2010, dated 2014).

In the assay the target is T1, N-terminal His6-tagged recombinant full-length human Lck (Homo sapiens, UniProt P06239).
T1 construct: N-terminal His6-tagged recombinant full-length human Lck; His6 (N); purchased Millipore
T1 sequence (P06239 whole entry): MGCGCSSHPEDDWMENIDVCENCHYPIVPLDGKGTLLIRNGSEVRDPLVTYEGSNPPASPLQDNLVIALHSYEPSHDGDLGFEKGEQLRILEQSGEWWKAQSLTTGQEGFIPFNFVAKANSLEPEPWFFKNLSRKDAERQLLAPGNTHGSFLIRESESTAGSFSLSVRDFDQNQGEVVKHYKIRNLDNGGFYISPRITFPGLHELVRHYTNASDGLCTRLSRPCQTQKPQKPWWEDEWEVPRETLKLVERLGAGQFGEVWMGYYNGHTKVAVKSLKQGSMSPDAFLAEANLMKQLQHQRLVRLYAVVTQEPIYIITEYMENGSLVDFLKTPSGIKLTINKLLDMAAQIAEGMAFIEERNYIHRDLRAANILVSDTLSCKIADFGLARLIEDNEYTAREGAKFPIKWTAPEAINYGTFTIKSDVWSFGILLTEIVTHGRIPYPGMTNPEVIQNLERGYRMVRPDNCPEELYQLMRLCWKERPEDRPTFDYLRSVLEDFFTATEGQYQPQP
The experiment in a line: Lck IMAP assay. As to conditions: ATP 6 μM (KM,ATP), enzyme pre-incubated with compounds for 60 minutes, values given as bins. Format: biochemical. In short, it runs like this: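 Full-length His6-Lck at 0.1 U/ml was preincubated 60 min with compound, then run 120 min at room temperature with 100 nM fluorescein-p34cdc2 peptide and 6 μM ATP (KM) in pH 7.2 Tris buffer. Read-out by IMAP fluorescence polarization; pIC50 from ten-point √10 dilutions starting at 10^-6 M.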
On to `COc1cc(-c2nc([C@H]3CC[C@H](N4CCN(C)CC4)CC3)n3ccnc(C)c23)ccc1NC(=O)c1cc(Cl)cn1C` [Example 55, 4-Chloro-N-(2-methoxy-4-(8-methyl-3-((trans)-4-(4-methylpiperazin-1-yl)cyclohexyl)imidazo[1,5-a]pyrazin-1-yl)phenyl)-1-methyl-1H-pyrrole-2-carboxamide], for which the half-inhibitory concentration (IC50) was at most 10 nM.
With `COc1cc(-c2nc([C@H]3CC[C@H](N4CCN(C)CC4)CC3)n3ccnc(C)c23)ccc1NC(=O)c1cc2ccsc2n1C` [Example 56, N-(2-methoxy-4-(8-methyl-3-((trans)-4-(4-methylpiperazin-1-yl)cyclohexyl)imidazo[1,5-a]pyrazin-1-yl)phenyl)-6-methyl-6H-thieno[2,3-b]pyrrole-5-carboxamide] the figure was at most 10 nM; with `COc1cc(-c2nc([C@H]3CC[C@H](N4CCN(C)CC4)CC3)n3ccnc(C)c23)ccc1NC(=O)c1cc2ccsc2[nH]1` [Example 57, N-(2-Methoxy-4-(8-methyl-3-((trans)-4-(4-methylpiperazin-1-yl)cyclohexyl)imidazo[1,5-a]pyrazin-1-yl)phenyl)-6H-thieno[2,3-b]pyrrole-5-carboxamide], at most 10 nM; with `COc1cc(-c2nc([C@H]3CC[C@H](N4CCN(C)CC4)CC3)n3ccnc(C)c23)ccc1NC(=O)c1cc2c(OC)cccc2[nH]1` [Example 58, 4-Methoxy-N-(2-methoxy-4-(8-methyl-3-((trans)-4-(4-methylpiperazin-1-yl)cyclohexyl)imidazo[1,5-a]pyrazin-1-yl)phenyl)-1H-indole-2-carboxamide], at most 10 nM.
With `COc1cc(-c2nc([C@H]3CC[C@H](N4CCN(C)CC4)CC3)n3ccnc(C)c23)ccc1NC(=O)c1cc2c(O)cccc2n1C` [Example 59, 4-Hydroxy-N-(2-methoxy-4-(8-methyl-3-((trans)-4-(4-methylpiperazin-1-yl)cyclohexyl)imidazo[1,5-a]pyrazin-1-yl)phenyl)-1-methyl-1H-indole-2-carboxamide] the figure was at most 10 nM; with `CCC[C@H](C)OC(=O)Nc1ccc(-c2nc([C@H]3CC[C@H](CN)CC3)n3ccnc(C)c23)cc1OC` [Example 60, (S)-Pentan-2-yl 4-(3-((trans)-4-(aminomethyl)cyclohexyl)-8-methylimidazo[1,5-a]pyrazin-1-yl)-2-methoxyphenylcarbamate], at most 10 nM; with `Cc1nccn2c1c(-c1ccc(NC(=O)c3cc4ccccc4n3C)cc1)nc2[C@H]1CC[C@H](N2CCN(C)CC2)CC1` [Example 61, 1-Methyl-N-(4-(8-methyl-3-((trans)-4-(4-methylpiperazin-1-yl)cyclohexyl)imidazo[1,5-a]pyrazin-1-yl)phenyl)-1H-indole-2-carboxamide], at most 10 nM.
Under `COc1cccc2c1cc(C(=O)Nc1ccc(-c3nc([C@H]4CC[C@H](N5CCN(C)CC5)CC4)n4ccnc(C)c34)cc1O)n2C` [Example 62, N-(2-hydroxy-4-(8-methyl-3-((trans)-4-(4-methylpiperazin-1-yl)cyclohexyl)imidazo[1,5-a]pyrazin-1-yl)phenyl)-4-methoxy-1-methyl-1H-indole-2-carboxamide] stands at most 10 nM; under `CNC[C@H]1CC[C@H](c2nc(-c3ccc(NC(=O)c4cc5c(OC)cccc5n4C)c(OC)c3)c3c(C)nccn32)CC1` [Example 63, 4-Methoxy-N-(2-methoxy-4-(8-methyl-3-((trans)-4-((methylamino)methyl)cyclohexyl)imidazo[1,5-a]pyrazin-1-yl)phenyl)-1-methyl-1H-indole-2-carboxamide], at most 10 nM.
Turning to `COc1cc(-c2nc([C@H]3CC[C@H](CN(C)C)CC3)n3ccnc(C)c23)ccc1NC(=O)c1cc2c(OC)cccc2n1C` [Example 64, N-(4-(3-((trans)-4-((dimethylamino)methyl)cyclohexyl)-8-methylimidazo[1,5-a]pyrazin-1-yl)-2-methoxyphenyl)-4-methoxy-1-methyl-1H-indole-2-carboxamide], the half-inhibitory concentration (IC50) was at most 10 nM.
Under `CCC[C@H](C)OC(=O)Nc1ccc(-c2nc([C@H]3CC[C@H](CN(C)C)CC3)n3ccnc(C)c23)cc1OC` [Example 65, (S)-Pentan-2-yl 4-(3-((trans)-4-((dimethylamino)methyl)cyclohexyl)-8-methylimidazo[1,5-a]pyrazin-1-yl)-2-methoxyphenylcarbamate] stands at most 10 nM; under `COc1ccc2c(C(=O)Nc3ccc(-c4nc([C@H]5CC[C@H](N6CCN(C)CC6)CC5)n5ccnc(C)c45)cc3OC)n[nH]c2c1` [Example 66, 6-Methoxy-N-(2-methoxy-4-(8-methyl-3-((trans)-4-(4-methylpiperazin-1-yl)cyclohexyl)imidazo[1,5-a]pyrazin-1-yl)phenyl)-1H-indazole-3-carboxamide], at most 10 nM; under `COc1cc(-c2nc([C@H]3CC[C@H](N4CCN(C)CC4)CC3)n3ccnc(C)c23)ccc1NC(=O)c1cc2cc(Cl)cnc2n1C` [Example 67, 5-Chloro-N-(2-methoxy-4-(8-methyl-3-((trans)-4-(4-methylpiperazin-1-yl)cyclohexyl)imidazo[1,5-a]pyrazin-1-yl)phenyl)-1-methyl-1H-pyrrolo[2,3-b]pyridine-2-carboxamide], at most 10 nM.
Under `COc1cc(-c2nc([C@H]3CC[C@H](CNC(C)=O)CC3)n3ccnc(C)c23)ccc1NC(=O)c1cc2c(OC)cccc2n1C` [Example 68, N-(4-(3-((trans)-4-(acetamidomethyl)cyclohexyl)-8-methylimidazo[1,5-a]pyrazin-1-yl)-2-methoxyphenyl)-4-methoxy-1-methyl-1H-indole-2-carboxamide] stands at most 10 nM; under `CCC[C@H](C)OC(=O)Nc1ccc(-c2nc([C@H]3CC[C@H](CNC(C)=O)CC3)n3ccnc(C)c23)cc1OC` [Example 69, (S)-pentan-2-yl 4-(3-((trans)-4-(acetamidomethyl)cyclohexyl)-8-methylimidazo[1,5-a]pyrazin-1-yl)-2-methoxyphenylcarbamate], at most 10 nM; under `CCC[C@H](C)OC(=O)Nc1ccc(-c2nc([C@H]3CC[C@H](CNC(=O)OC)CC3)n3ccnc(C)c23)cc1OC` [Example 70], at most 10 nM.
Under `COc1cc(-c2nc(C3CCC(=O)CC3)n3ccnc(C)c23)ccc1NC(=O)c1cc2c(OC)cccc2n1C` [Example 71, 4-Methoxy-N-(2-methoxy-4-(8-methyl-3-(4-oxocyclohexyl)imidazo[1,5-a]pyrazin-1-yl)phenyl)-1-methyl-1H-indole-2-carboxamide] stands at most 10 nM; under `CNC[C@]1(O)CC[C@H](c2nc(-c3ccc(NC(=O)c4cc5c(OC)cccc5n4C)c(OC)c3)c3c(C)nccn32)CC1` [Example 72, N-(4-(3-((trans)-4-hydroxy-4-((methylamino)methyl)cyclohexyl)-8-methylimidazo[1,5-a]pyrazin-1-yl)-2-methoxyphenyl)-4-methoxy-1-methyl-1H-indole-2-carboxamide], at most 10 nM; under `COc1cc(-c2nc(C3CC(=O)N(C)C3)n3ccnc(C)c23)ccc1NC(=O)c1cc2c(OC)cccc2n1C` (stereo not drawn) [Example 73, 4-Methoxy-N-(2-methoxy-4-(8-methyl-3-(1-methyl-5-oxopyrrolidin-3-yl)imidazo[1,5-a]pyrazin-1-yl)phenyl)-1-methyl-1H-indole-2-carboxamide], at most 10 nM.
Take `COc1cc(-c2nc([C@H]3CC[C@H](N4CCN(C)C(=O)C4)CC3)n3ccnc(C)c23)ccc1NC(=O)c1cc2c(OC)cccc2n1C` [Example 74, 4-Methoxy-N-(2-methoxy-4-(8-methyl-3-((trans)-4-(4-methyl-3-oxopiperazin-1-yl)cyclohexyl)imidazo[1,5-a]pyrazin-1-yl)phenyl)-1-methyl-1H-indole-2-carboxamide]: the IC50 is at most 10 nM.
Under `COc1cc2cc(C(=O)Nc3ccc(-c4nc([C@H]5CC[C@H](N6CCN(C)CC6)CC5)n5ccnc(C)c45)cc3OC)n(C)c2cn1` [Example 75, 5-Methoxy-N-(2-methoxy-4-(8-methyl-3-((trans)-4-(4-methylpiperazin-1-yl)cyclohexyl)imidazo[1,5-a]pyrazin-1-yl)phenyl)-1-methyl-1H-pyrrolo[2,3-c]pyridine-2-carboxamide] stands at most 10 nM.
